# Experimental data reported in US9809623B2, “α4β7 peptide monomer and dimer antagonists” (Protagonist Therapeutics, Inc., priority 2014, dated 2017).
# pIC50: −log10 of the molar value. Read-outs that look alike come from different tables or passages of the source. Numbered stars: 1 amine (or outer) side, 2 acyl side, 3 side chain; on linkers, the order of the positions; unused ones are H or OH. Bridge positions count the residues as written; N and C are the ends. Square brackets hold non-standard residues; d marks the D form. Peptide text beside a SMILES is read from it. I, II: the chains in the order shown. ξ: configuration not given here. Phe(4-tBu) = CC(C)(C)c1ccc(C[C@H](N)C(=O)O)cc1; Diglycolyl = O=C(COCC(=O)[*:2])[*:1]; NMeR = CN[C@@H](CCCNC(=N)N)C(=O)O; β3hE = N[C@@H](CCC(=O)O)CC(=O)O; Thr(3ξ) = CC(O)[C@H](N)C(=O)O; Pen = CC(C)(S)[C@H](N)C(=O)O
# Assays:
# [1] = biological target: α4β7 integrin (Homo sapiens, UniProt P13612+P26010); test: Schild analysis, MAdCAM binding to immobilized α4β7 integrin by ELISA; details: global-fit Schild analysis
# Experimental: Schild analysis was used to determine if Peptide X blocked MAdCAM binding to α4β7 integrin by a simple competitive mechanism. […] Based on the dose-response shifts, global-fit Schild analysis was used to determine the Schild slope and equilibrium dissociation constant (KB). The slope was ˜1, which indicated the inhibition is orthosteric antagonism with respect to MAdCAM, and not allosteric antagonism. […] The estimated KB value was 1 nM, which was similar to other Peptide X potency values in different assays.
# [2] = Tissue exposure after oral administration, 8 days; format: in vivo; details: cynomolgus monkey; for level at time molar at 4 h: 4 hours after the last dose
# Experimental: To determine tissue exposure following oral administration of Peptide X, Cynomolgus monkeys were dosed with Peptide X PO QD for 8 days at 12.5 mg/kg, 25 mg/kg or 75 mg/kg. The vehicle was 50 mM phosphate buffer, pH 7. Oral bioavailability in cyno (% F) was about 0.3%. Samples were collected 4 hours after the last dose.
# [3] = tested on: C57BL/6 male mice, DSS colitis; format: in vivo
# Experimental: Colitis was induced in C57BL/6 male mice (10 animals per group) by exposure to 3% DSS-treated drinking water from day 0 to day 5, when animals were shifted to normal drinking water. Once daily, animal deaths were recorded, and surviving animals were weighed and assessed visually for the presence of diarrhea and/or bloody stool. Immediately prior to sacrifice on day 9, colitis severity was assessed in all animals using video endoscopy, and the resulting images were scored for colitis severity by an observer blinded to group identity.
# Starting on day 0, mice were given twice-daily oral doses of either a vehicle/sham control (Group 1) or Peptide X (Group 2: 10 mg/kg, PO, BID). On day 9, only the AM treatment dose was administered. Animals in Group 2 also were administered Peptide X in their drinking water at a concentration of 0.2 mg/mL. The drinking water bottle weights for Groups 1 and 2 were measured, and water consumption was used to estimate the peptide dose ingested via the drinking water. Based on daily water consumption, the average daily Peptide X dose from the combination of oral gavage and drinking water was estimated to be 49 mg/kg.
# Mice were sacrificed on day 9, approximately four hours after the final of gavage dose administration. Spleen, Peyer's patches (PP), mesenteric lymph nodes (MLN), and blood were collected from each animal and processed for FACS analysis of α4 and β7 expression on TH memory cells. Takedown and FACS analysis occurred on the same day.
# For PK measurements, colon sections from the proximal and distal colon were collected at ˜4 hours after the last AM dose and analyzed by mass spectrometry. Exposure in the proximal colon was approximately 3-fold higher than that in the distal colon (FIG. 12). The concentration of Peptide X in the blood was 84-fold and 31-fold lower compared to that in the proximal and distal colon, respectively. Nonetheless at this time point, the plasma concentration was ˜80-fold greater than the Peptide IC50 value for blocking α4β7 binding to MAdCAM.
# [4] = biological target: T1, αLβ2 (Homo sapiens, UniProt P05107+P20701); test: IC50 for αLβ2 (assay not further described)
# Experimental: Biochemical competition ELISA assays were performed for α4β7 and α4β1 integrins. The ELISA assay for α4β7 is based on binding of MAdCAM-1 to immobilized α4β7, whereas the α4β1 ELISA relies on binding of soluble α4β1 to immobilized VCAM-1. These assays are described in Example 2. Under 1 mM Mg^2+ binding conditions, the IC50 for Peptide X was 3 nM and >10,000 nM for α4β7 and α4β1, respectively. In addition, the IC50 for Peptide X was >100 uM for both α4β1 and αLβ2. The IC50 of Peptide X for α4β7 T cells was 1 nM.
# [5] = biological target: T1, αLβ2; test: PBMC memory T cell adhesion to ICAM-1; format: cell-based; design: endogenous in cells; details: memory T cells isolated from human PBMC donors; read-out: IC50 (nM), memory T cells, Ligand ICAM-1
# [6] = 10 mg/kg PO BID plus 0.2 mg/mL in drinking water, day 9
# T1 sequence (P20701 26-1170): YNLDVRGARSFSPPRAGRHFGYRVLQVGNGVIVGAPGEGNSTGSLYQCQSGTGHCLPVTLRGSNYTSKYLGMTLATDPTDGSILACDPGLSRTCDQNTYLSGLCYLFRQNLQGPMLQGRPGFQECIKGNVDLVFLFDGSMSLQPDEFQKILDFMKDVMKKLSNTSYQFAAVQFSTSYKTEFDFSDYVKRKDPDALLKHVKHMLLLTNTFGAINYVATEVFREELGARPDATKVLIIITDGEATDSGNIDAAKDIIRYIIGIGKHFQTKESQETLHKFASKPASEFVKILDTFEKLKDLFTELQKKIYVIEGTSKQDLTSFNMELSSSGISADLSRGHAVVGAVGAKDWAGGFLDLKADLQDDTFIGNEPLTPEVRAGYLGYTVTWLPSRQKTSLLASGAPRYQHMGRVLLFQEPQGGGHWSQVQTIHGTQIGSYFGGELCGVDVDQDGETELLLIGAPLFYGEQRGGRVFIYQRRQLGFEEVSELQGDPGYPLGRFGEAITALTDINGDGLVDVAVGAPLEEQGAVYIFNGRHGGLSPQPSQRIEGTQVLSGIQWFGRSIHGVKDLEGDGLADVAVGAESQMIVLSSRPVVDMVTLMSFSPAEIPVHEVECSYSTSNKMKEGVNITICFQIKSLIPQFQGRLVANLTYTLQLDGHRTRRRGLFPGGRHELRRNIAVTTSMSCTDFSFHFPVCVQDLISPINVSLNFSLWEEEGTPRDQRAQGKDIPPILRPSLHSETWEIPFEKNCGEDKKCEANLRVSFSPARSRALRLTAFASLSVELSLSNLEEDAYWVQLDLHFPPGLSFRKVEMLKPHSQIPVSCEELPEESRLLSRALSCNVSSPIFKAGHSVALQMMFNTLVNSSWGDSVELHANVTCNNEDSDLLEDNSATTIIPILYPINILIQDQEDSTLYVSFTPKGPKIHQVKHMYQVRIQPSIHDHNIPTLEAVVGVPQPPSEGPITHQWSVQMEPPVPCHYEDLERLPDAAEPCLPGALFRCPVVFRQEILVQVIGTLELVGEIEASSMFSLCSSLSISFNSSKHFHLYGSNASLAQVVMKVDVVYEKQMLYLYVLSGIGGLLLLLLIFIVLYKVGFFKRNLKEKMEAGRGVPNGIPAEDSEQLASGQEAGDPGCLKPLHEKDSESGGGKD
# T1 sequence (P05107 23-769): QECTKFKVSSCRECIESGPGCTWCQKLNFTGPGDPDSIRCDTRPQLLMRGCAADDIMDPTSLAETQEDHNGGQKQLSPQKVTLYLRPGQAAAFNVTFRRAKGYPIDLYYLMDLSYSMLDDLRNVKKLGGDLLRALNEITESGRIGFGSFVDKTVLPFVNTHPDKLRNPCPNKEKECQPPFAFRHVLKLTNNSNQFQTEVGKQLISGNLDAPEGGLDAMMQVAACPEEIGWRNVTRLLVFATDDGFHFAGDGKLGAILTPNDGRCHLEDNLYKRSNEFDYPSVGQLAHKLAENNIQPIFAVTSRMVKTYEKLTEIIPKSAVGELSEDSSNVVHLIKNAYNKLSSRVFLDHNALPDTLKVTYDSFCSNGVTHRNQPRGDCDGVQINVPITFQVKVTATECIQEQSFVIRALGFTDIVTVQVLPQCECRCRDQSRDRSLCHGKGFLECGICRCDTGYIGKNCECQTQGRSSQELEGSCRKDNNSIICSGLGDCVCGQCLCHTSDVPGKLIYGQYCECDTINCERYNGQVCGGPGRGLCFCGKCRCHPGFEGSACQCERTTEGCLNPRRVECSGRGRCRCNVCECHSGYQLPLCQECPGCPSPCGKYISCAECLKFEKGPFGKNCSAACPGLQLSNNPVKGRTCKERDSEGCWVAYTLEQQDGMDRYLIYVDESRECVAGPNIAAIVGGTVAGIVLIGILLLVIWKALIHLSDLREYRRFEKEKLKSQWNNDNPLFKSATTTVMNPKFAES
# α4β7 integrin, sequence (P13612 34-977 limits assumed): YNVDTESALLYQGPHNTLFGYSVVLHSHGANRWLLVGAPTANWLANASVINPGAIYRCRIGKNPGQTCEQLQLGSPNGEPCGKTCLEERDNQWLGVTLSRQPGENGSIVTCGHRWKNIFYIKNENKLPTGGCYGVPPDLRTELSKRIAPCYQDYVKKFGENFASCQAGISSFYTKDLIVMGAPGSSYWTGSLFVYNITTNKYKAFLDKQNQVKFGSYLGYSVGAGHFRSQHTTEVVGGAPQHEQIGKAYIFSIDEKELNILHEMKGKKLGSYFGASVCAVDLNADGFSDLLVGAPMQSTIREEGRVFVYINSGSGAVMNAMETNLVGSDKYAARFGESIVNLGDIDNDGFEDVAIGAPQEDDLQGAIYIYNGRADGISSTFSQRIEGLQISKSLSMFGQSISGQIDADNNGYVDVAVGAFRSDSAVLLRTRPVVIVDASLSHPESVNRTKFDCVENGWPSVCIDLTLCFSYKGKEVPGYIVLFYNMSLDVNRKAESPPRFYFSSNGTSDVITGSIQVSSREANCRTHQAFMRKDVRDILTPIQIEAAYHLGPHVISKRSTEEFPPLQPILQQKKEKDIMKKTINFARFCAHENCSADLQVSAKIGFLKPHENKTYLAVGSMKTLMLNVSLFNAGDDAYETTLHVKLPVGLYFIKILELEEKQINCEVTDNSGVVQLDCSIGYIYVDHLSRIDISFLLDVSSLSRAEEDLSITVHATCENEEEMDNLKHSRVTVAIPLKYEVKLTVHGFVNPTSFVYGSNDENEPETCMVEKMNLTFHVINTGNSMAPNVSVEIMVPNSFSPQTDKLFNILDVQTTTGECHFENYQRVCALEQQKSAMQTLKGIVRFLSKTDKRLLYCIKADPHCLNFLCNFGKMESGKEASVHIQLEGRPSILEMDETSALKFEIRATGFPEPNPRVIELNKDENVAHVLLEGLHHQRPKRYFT
# α4β7 integrin, sequence (P26010 20-723 limits assumed): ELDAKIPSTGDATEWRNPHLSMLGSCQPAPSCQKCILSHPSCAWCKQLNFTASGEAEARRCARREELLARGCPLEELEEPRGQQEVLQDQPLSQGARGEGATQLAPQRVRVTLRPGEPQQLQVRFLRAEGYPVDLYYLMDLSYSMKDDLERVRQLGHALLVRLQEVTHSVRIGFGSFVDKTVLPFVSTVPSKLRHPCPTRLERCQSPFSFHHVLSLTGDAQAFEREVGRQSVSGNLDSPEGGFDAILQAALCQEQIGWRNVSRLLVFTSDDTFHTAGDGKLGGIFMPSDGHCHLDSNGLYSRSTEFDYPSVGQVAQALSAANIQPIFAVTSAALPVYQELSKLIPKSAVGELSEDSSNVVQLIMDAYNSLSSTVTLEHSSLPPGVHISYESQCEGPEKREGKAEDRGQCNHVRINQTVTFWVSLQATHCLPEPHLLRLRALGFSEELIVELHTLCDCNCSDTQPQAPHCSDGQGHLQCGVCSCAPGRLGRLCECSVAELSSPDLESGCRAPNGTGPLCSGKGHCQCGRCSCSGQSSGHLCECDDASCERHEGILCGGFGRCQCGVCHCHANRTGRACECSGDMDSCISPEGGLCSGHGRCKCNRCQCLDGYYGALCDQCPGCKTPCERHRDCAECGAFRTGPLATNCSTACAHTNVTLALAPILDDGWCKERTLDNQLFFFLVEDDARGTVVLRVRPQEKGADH
smiles,measurement,setting,value
"CC(=O)N[C@@H]1C(=O)N(C)[C@@H](CCCNC(=N)N)C(=O)N[C@@H](CO)C(=O)N[C@@H](CC(=O)O)C(=O)N[C@@H](C(C)O)C(=O)N[C@@H](CC(C)C)C(=O)N[C@H](C(=O)N[C@@H](Cc2ccc(C(C)(C)C)cc2)C(=O)N[C@@H](CCC(=O)O)CC(=O)N[C@H](CCCCNC(=O)COCC(=O)NCCCC[C@@H](NC(=O)C[C@H](CCC(=O)O)NC(=O)[C@H](Cc2ccc(C(C)(C)C)cc2)NC(=O)[C@H]2NC(=O)[C@H](CC(C)C)NC(=O)[C@H](C(C)O)NC(=O)[C@H](CC(=O)O)NC(=O)[C@H](CO)NC(=O)[C@H](CCCNC(=N)N)N(C)C(=O)[C@@H](NC(C)=O)C(C)(C)SSC2(C)C)C(N)=O)C(N)=O)C(C)(C)SSC1(C)C (stereo partly drawn) [Peptide X, [Ac-Pen-(N-Me-Arg)-Ser-Asp-Thr-Leu-Pen-(Phe(4-tBu))-(β-homoGlu)-(D-Lys)]2-DIG] (I: Ac-[Pen][NMeR]SD[Thr(3ξ)]L[Pen][Phe(4-tBu)][β3hE][dK]-NH2 / II: Ac-[Pen][NMeR]SD[Thr(3ξ)]L[Pen][Phe(4-tBu)][β3hE][dK]-NH2; disulfide I:1-I:7, II:1-II:7; linker I:10-II:10 via Diglycolyl)",Schild slope,[1],~1
same,Kb,"[1]; estimated, read-out: equilibrium dissociation constant (KB)",0.001 µM
same,level at time molar at 4 h,"[2]; colon, 12.5 mg/kg PO QD 8 days, read-out: Peptide X exposure, Colon",4160 nM
same,level at time molar at 4 h,"[2]; colon, 25 mg/kg PO QD 8 days, read-out: Peptide X exposure, Colon",1550 nM
same,level at time molar at 4 h,"[2]; colon, 75 mg/kg PO QD 8 days, read-out: Peptide X exposure, Colon",15500 nM
same,bioavailability,"[2]; in vivo, oral, read-out: Oral bioavailability in cyno (% F)",~0.3%
same,level at time molar at 4 h,"[2]; mesenteric lymph node, 12.5 mg/kg PO QD 8 days, read-out: Peptide X exposure, Mesenteric Lymph Node",1500 nM
same,level at time molar at 4 h,"[2]; mesenteric lymph node, 25 mg/kg PO QD 8 days, read-out: Peptide X exposure, Mesenteric Lymph Node",138 nM
same,level at time molar at 4 h,"[2]; mesenteric lymph node, 75 mg/kg PO QD 8 days, read-out: Peptide X exposure, Mesenteric Lymph Node",1980 nM
same,level at time molar at 4 h,"[2]; plasma, 12.5 mg/kg PO QD 8 days, read-out: Peptide X exposure, Plasma",2 nM
same,level at time molar at 4 h,"[2]; plasma, 25 mg/kg PO QD 8 days, read-out: Peptide X exposure, Plasma",5 nM
same,level at time molar at 4 h,"[2]; plasma, 75 mg/kg PO QD 8 days, read-out: Peptide X exposure, Plasma",21 nM
same,level at time molar at 4 h,"[2]; small intestine, 12.5 mg/kg PO QD 8 days, read-out: Peptide X exposure, Small Intestine",661 nM
same,level at time molar at 4 h,"[2]; small intestine, 25 mg/kg PO QD 8 days, read-out: Peptide X exposure, Small Intestine",293 nM
same,level at time molar at 4 h,"[2]; small intestine, 75 mg/kg PO QD 8 days, read-out: Peptide X exposure, Small Intestine",7840 nM
same,endoscopy score (mean±SD),[3]; [6],1.78±1.5
same,reduction of endoscopy scores vs vehicle,[3]; [6],32%
same,"effect on weight loss, fluid intake, colon weight or length, presence of bloody stool and diarrhea",[3]; 10 mg/kg PO BID plus drinking water,no significant effect
same,visual assessment of endoscopy images,[3]; compared to the vehicle control,reduced colonic friability and improved mucosal healing
same,Exposure in the proximal colon higher than in the distal colon,"[3]; mouse, in vivo",approximately 3 fold
same,decrease in percentage of α4β7+ memory cells relative to total cells in Peyer's Patches,"[3]; vs vehicle, day 9",55%
same,decrease in percentage of α4β7+ memory cells relative to total cells in the MLN,"[3]; vs vehicle, day 9",23%
same,increase in total α4β7 memory cells per mL blood,"[3]; vs vehicle, day 9",42%
same,increase in total α4β7 memory cells recovered from the spleen,"[3]; vs vehicle, day 9",73%
same,pIC50,[4],< 4.00
same,IC50,[5],> 100000 nM
